Reference: patent US10798955B2, “Compositions of particulate coformulation” (Nektar Therapeutics, priority 2000, dated 2020)

Assay: Storage stability at room temperature and 100% relative humidity
Assay type: physicochemical
Conditions: 200 mg stored for a month at room temperature and 100% relative humidity
Description: For the assessment of stability, 200 mg of the Example A6 product (60% w/w QS in EC) was stored for a month at room temperature and 100% relative humidity, alongside a sample of the as-received pure QS.

C=C[C@H]1C[N@@]2CC[C@H]1C[C@H]2[C@H](O)c1ccnc2ccc(OC)cc12 [quinine sulphate]
powder physical appearance and flow properties after storage: signs of partial caking and a lower degree of powder flowability
